According to PubChem BioAssay AID1963864 (Molecular Pharmacology Branch, DTP, NCI, 2024):

System: KRAS PDC multicell spheroid viability
Test: Anticancer human tumor 521955-158-R6-J3-PDC patient-derived pancreatic carcinoma cell line growth inhibition [KRAS2]
Conditions: for IC50: curve of first compound; for viability, T/C: stronger effect = lower value
Source text: Multicellular complex tumor spheroid response to RAS pathway inhibitors in combination with a targeted agents in patient-derived cell lines with oncogenic KRAS variants from multiple cancer types
A high-throughput screen of multi-cell type tumor spheroids was designed to identify active combinations of targeted small molecules and KRAS pathway inhibitors. Complex spheroids include a stromal component modeled by human endothelial cells (HUVEC) and fibroblasts modeled by human mesenchymal stem cells (MSCs). The concentration ranges selected for each drug and investigational agent were based upon clinically achievable concentrations if the clinical Cmax of the agent was known.
Compounds. The drugs and investigational agents: BI-3406 (NSC825286), BAY-293 (NSC824723), batoprotafib (TNO155; NSC825523), sotorasib (AMG 510; NSC818433), MRTX1257 (NSC819558), elimusertib (BAY 1895344; NSC800525), molibresib (GSK525762; NSC774829), temuterkib (LY3214996; NSC803410), venetoclax (NSC766270), alisertib (NSC759677), olaparib (NSC753686), talazoparib (NSC767125), erdafitinib (NSC781556), ipatasertib (NSC767898), cabozantinib (NSC761068), nintedanib (NSC756659), abemaciclib (NSC768073), docetaxel (NSC628503), trametinib (NSC758246), and sapanisertib (NSC764658) were obtained from the National Cancer Institute (NCI) Developmental Therapeutics Program Chemical Repository. The FDA-approved anticancer drug set is available from the Developmental Therapeutics Program. […] The stock solutions were prepared in dimethyl sulfoxide (DMSO, Sigma-Aldrich, St. Louis, MO, cat. D2650) at 800-fold the tested concentration and stored at -70 degrees C prior to their use. All drugs and investigational agents were tested over a range starting from a high concentration at or near the clinical Cmax and decreasing in half-log increments. If the clinical Cmax for an agent had not been determined, the highest concentration tested was 10 microM.
Cell Culture. All cells were maintained in an incubator at 37 degrees C and 5% CO2 with 95% humidity. The PDC lines were cultured according to standard operating procedures established by the NCI PDMR (https://pdmr.cancer.gov/sops/default.htm). Briefly, all PDCs were thawed and cultured in Matrigel-coated flasks prepared with a working solution of 1X Ham's F-12 nutrient mix, without supplementation (Invitrogen, Waltham, MA, cat. 11765054), 100 U/mL penicillin-streptomycin (Invitrogen, cat. 15140122), and 2.5% Matrigel (Corning Inc., Corning, NY, cat. 354248) for the first three passages. All PDCs were cultured in complete DMEM/F-12 media containing advanced DMEM/F-12 (Invitrogen, cat. 12634028), 4.9% defined fetal bovine serum, heat inactivated (HyClone Laboratories Inc., Logan, UT, cat. SH30070.03HI), 389 ng/mL hydrocortisone (Sigma-Aldrich, cat. H4001), 9.7 ng/mL human EGF recombinant protein (Invitrogen, cat. PHG0313), 23.4 microg/mL adenine (Sigma-Aldrich, cat. A2786), 97.3 U/mL penicillin-streptomycin (Invitrogen, cat. 15140122), 1.9 mM L-glutamine (Invitrogen, cat. 25030081), and 9.7 microM Y-27632 dihydrochloride (Tocris Bioscience, Bristol, United Kingdom, cat. 1254). The PDCs were cultured in complete DMEM/F12 media without 9.7 microM Y-27632 dihydrochloride for at least two passages prior to the screen. The established cell line HOP-62 was cultured in RPMI 1640 medium, HEPES (Invitrogen, cat. 22400105) with 10% defined fetal bovine serum (HyClone Laboratories Inc., cat. SH30070.03) and 2 mM L-glutamine (Invitrogen, cat. 25030081). The pooled donor HUVEC were cultured in endothelial cell growth medium 2 (PromoCell, Heidelberg, Germany, cat. C-22011) and the hMSC were cultured in mesenchymal stem cell growth medium 2 (PromoCell, cat. C-28009). For all experiments, HUVEC and hMSC were used at passages </=5, while the malignant cell lines were used at passages </=15. […]

[1] = second compound 0.1 µM, first compound 0.00316 µM
[2] = second compound 0.1 µM, first compound 0.01 µM
[3] = second compound 0.1 µM, first compound 0.0316 µM
[4] = second compound 0.1 µM, first compound 0.1 µM
[5] = second compound 0.316 µM, first compound 0.00316 µM
[6] = second compound 0.316 µM, first compound 0.01 µM
[7] = second compound 0.316 µM, first compound 0.0316 µM
[8] = second compound 0.316 µM, first compound 0.1 µM
[9] = second compound 1 µM, first compound 0.00316 µM
[10] = second compound 1 µM, first compound 0.01 µM
[11] = second compound 1 µM, first compound 0.0316 µM
[12] = second compound 1 µM, first compound 0.1 µM
[13] = second compound 3.16 µM, first compound 0.00316 µM
[14] = second compound 3.16 µM, first compound 0.01 µM
[15] = second compound 3.16 µM, first compound 0.0316 µM
[16] = second compound 3.16 µM, first compound 0.1 µM
[17] = second compound 10 µM, first compound 0.00316 µM
[18] = second compound 10 µM, first compound 0.01 µM
[19] = second compound 10 µM, first compound 0.0316 µM
[20] = second compound 10 µM, first compound 0.1 µM
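Further: drug exposure lasted seven days.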
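Wherever viability, T/C is given: 100% = DMSO vehicle wells and lower means fewer viable cells.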

| Structure (SMILES) | IC50 (second compound 0.1 µM) [nM] | IC50 (second compound 0.316 µM) [nM] | IC50 (second compound 1 µM) [nM] | IC50 (second compound 3.16 µM) [nM] | IC50 (second compound 10 µM) [nM] | viability, T/C [1] [%] | viability, T/C [2] [%] | viability, T/C [3] [%] | viability, T/C [4] [%] | viability, T/C [5] [%] | viability, T/C [6] [%] | viability, T/C [7] [%] | viability, T/C [8] [%] | viability, T/C [9] [%] | viability, T/C [10] [%] | viability, T/C [11] [%] | viability, T/C [12] [%] | viability, T/C [13] [%] | viability, T/C [14] [%] | viability, T/C [15] [%] | also measured |
| --- | --- | --- | --- | --- | --- | --- | --- | --- | --- | --- | --- | --- | --- | --- | --- | --- | --- | --- | --- | --- | --- |
| CCN1CCN(Cc2ccc(Nc3ncc(F)c(-c4cc(F)c5nc(C)n(C(C)C)c5c4)n3)nc2)CC1 + C=CC(=O)N1CCN(c2nc(=O)n(-c3c(C)ccnc3C(C)C)c3nc(-c4c(O)cccc4F)c(F)cc23)C(C)C1 | > 1000 | > 1000 | > 1000 | > 1000 | > 1000 | 102 | 88.8 | 86.1 | 74.2 | 95.8 | 90.6 | 78.7 | 86 | 111 | 91.9 | 111 | 94.3 | 87.6 | 89.4 | 101 | viability, T/C (second compound 0.1 µM, first compound 0.316 µM): 83.6%; viability, T/C (second compound 0.1 µM, first compound 1 µM): 97.6%; viability, T/C (second compound 0.316 µM, first compound 0.316 µM): 88.2%; viability, T/C (second compound 0.316 µM, first compound 1 µM): 88.5%; viability, T/C (second compound 1 µM, first compound 0.316 µM): 85.6%; viability, T/C (second compound 1 µM, first compound 1 µM): 125%; viability, T/C [16]: 90.3%; viability, T/C (second compound 3.16 µM, first compound 0.316 µM): 109%; viability, T/C (second compound 3.16 µM, first compound 1 µM): 114%; viability, T/C [17]: 63.2%; viability, T/C [18]: 73.2%; viability, T/C [19]: 75.3%; viability, T/C [20]: 70.4%; viability, T/C (second compound 10 µM, first compound 0.316 µM): 85.5%; viability, T/C (second compound 10 µM, first compound 1 µM): 114% |
| Cn1ncnc1[C@H]1c2n[nH]c(=O)c3cc(F)cc(c23)N[C@@H]1c1ccc(F)cc1 + C=CC(=O)N1CCN(c2nc(=O)n(-c3c(C)ccnc3C(C)C)c3nc(-c4c(O)cccc4F)c(F)cc23)C(C)C1 | > 100 | > 100 | > 100 | > 100 | > 100 | 101 | 107 | 96.5 | 95 | 116 | 94.9 | 105 | 108 | 118 | 97.5 | 110 | 118 | 101 | 100 | 99.7 | viability, T/C (second compound 0.1 µM, first compound 0.000316 µM): 106%; viability, T/C (second compound 0.1 µM, first compound 0.001 µM): 109%; viability, T/C (second compound 0.316 µM, first compound 0.000316 µM): 110%; viability, T/C (second compound 0.316 µM, first compound 0.001 µM): 102%; viability, T/C (second compound 1 µM, first compound 0.000316 µM): 114%; viability, T/C (second compound 1 µM, first compound 0.001 µM): 109%; viability, T/C (second compound 3.16 µM, first compound 0.000316 µM): 102%; viability, T/C (second compound 3.16 µM, first compound 0.001 µM): 104%; viability, T/C [16]: 96.4%; viability, T/C (second compound 10 µM, first compound 0.000316 µM): 81.8%; viability, T/C (second compound 10 µM, first compound 0.001 µM): 80.2%; viability, T/C [17]: 83.4%; viability, T/C [18]: 83.2%; viability, T/C [19]: 82.5%; viability, T/C [20]: 78% |
